Values after ≈ are worked out from the molar mass of the structure shown. Values joined by “and” are separate entries in the source; they are usually repeats but may differ in a detail not shown here. Identical values can stand only once. Like-named read-outs stand apart in the source and are kept apart here.
Tests used:
[1] = system: Standard Strain H37Rv of mycobacterium tuberculosis; test: MIC against standard strain H37Rv by Microplate Alamar Blue Assay (MABA); assay type: cell-based; conditions: M. tuberculosis H37Rv, 7H9 medium, 37° C.
[2] = Acute toxicity in mice, single oral intragastric administration; assay type: in vivo; conditions: male, BALB/C, mouse, in vivo, single oral intragastric administration, preliminary
Method: (§1) Experiments on the Acute Toxicity of the Compounds
(§2) The acute toxicities of Compounds 4, 16 and 25 were in vivo evaluated preliminarily in mice. Animal: male BALB/C mice, 18-20 g/mouse, 3 mice for blank control group, and 5 mice for each of test groups.
(§3) Method: Suspensions of Compound 25: 49 mg/ml (depended on the total amount of the compound provided); Compounds 4 and 16: 50 mg/ml were prepared in 0.5% CMC to separately. Each mouse of the 3 groups was subjected to oral intragastric administration of 0.2 ml of drug, and the doses were separately as follows: Compound 25: 490 mg/kg; and Compounds 4 and 16: 500 mg/kg. The blank control was administered with water. The consciousness, behavior and death of mice were observed every day after administration until 7 days of administration, and the survived mice were dissected after 7 days to observe pathological changes of tissues.

[3] = system: male BALB/C mice; test: as above; assay type: in vivo; conditions: single dose of 500 mg/kg, observed 7 days
Method: as §1, §2, §3

[4] = Mycobacterium tuberculosis, H37RV, read-out: MIC

| SMILES | MIC [1] | further results |
| --- | --- | --- |
| COc1cc2ccc(Br)cc2cc1C(c1ccccc1)C(O)(CCN(C)C)c1cccc(Br)c1 (stereo not drawn) [Compound 11, 1-phenyl-2-(3-bromophenyl)-1-[2-(7-bromo-3-methoxy)naphthyl]-4-(N,N-dimethylamino)-butan-2-ol] | 0.103 µg/mL (≈ 0.177 µM) |  |
| COc1cc2ccc(Br)cc2cc1C(c1ccccc1)C(O)(CCN(C)C)c1ccccc1 (stereo not drawn) [Compound 19, 1,2-diphenyl-1-[2-(7-bromo-3-methoxy)naphthyl]-4-(N,N-dimethylamino)-butan-2-ol] | 0.206 µg/mL (≈ 0.408 µM) |  |
| COc1cc2ccccc2cc1C(c1ccc(Cl)cc1)C(O)(CCN(C)C)c1cccc2ccccc12 (single isomer, unassigned) [Compound 5, 1-(4-chlorophenyl)-2-(1-naphthyl)-1-[2-(3-methoxy)naphthyl]-4-(N,N-dimethylamino)-butan-2-ol] | 3.052 µg/mL (≈ 5.98 µM) |  |
| COc1cc2ccccc2cc1C(c1ccccc1)C(O)(CCN(C)C)c1cccc2ccccc12 (stereo not drawn) [Compound 1, 1-phenyl-2-(1-naphthyl)-1-[2-(3-methoxy)-naphthyl]-4-(N,N-dimethylamino)-butan-2-ol] |  | MIC [1, 4]: 2.05 µg/mL (≈ 4.3 µM) |
| COc1cc2ccc(Br)cc2cc1C(c1ccccc1)C(O)(CCN(C)C)c1ccccc1Br (stereo not drawn) [Compound 23, 1-phenyl-2-(2-bromophenyl)-1-[2-(7-bromo-3-methoxy)naphthyl]-4-(N,N-dimethylamino)-butan-2-ol] | >32 µg/mL |  |
| COc1cc2ccc(Br)cc2cc1C(c1ccccc1)C(O)(CCN(C)C)c1ccccc1Br (stereo not drawn) [Compound 24, 1-phenyl-2-(2-bromophenyl)-1-[2-(7-bromo-3-methoxy)naphthyl]-4-(N,N-dimethylamino)-butan-2-ol] | 0.224 µg/mL (≈ 0.384 µM) |  |
| COc1c(C(c2ccccc2)C(O)(CCN(C)C)c2cccc3ccccc23)cc2cc(Br)ccc2c1Br (stereo not drawn) [Compound 32, 1-phenyl-2-(1-naphthyl)-1-[2-(4,7-dibromo-3-methoxy)naphthyl]-4-(N,N-dimethylamino)-butan-2-ol] | 1.000 µg/mL (≈ 1.58 µM) |  |
| COc1cc2ccc(Br)cc2cc1C(c1cccc(C)c1)C(O)(CCN(C)C)c1cccc2ccccc12 (stereo not drawn) [Compound 37, 1-(3-methylphenyl)-2-(1-naphthyl)-1-[2-(7-bromo-3-methoxy)naphthyl]-4-(N,N-dimethylamino)-butan-2-ol] | 0.180 µg/mL and 0.258 µg/mL |  |
| CN(C)CCC(O)(c1cccc2ccccc12)C(c1ccccc1)c1cc2cc(Br)ccc2c(Br)c1O (stereo not drawn) [Compound 34, 1,6-dibromo-3-[1-phenyl 2-(1-naphthyl)-2-hydroxy-4-(N,N-dimethylamino)]butyl-2-naphthol] | 4.000 µg/mL (≈ 6.46 µM) |  |
| COc1cc2ccccc2cc1C(c1ccc(Cl)cc1)C(O)(CCN(C)C)c1cccc2ccccc12 (single isomer, unassigned) [Compound 6, 1-(4-chlorophenyl)-2-(1-naphthyl)-1-[2-(3-methoxy)naphthyl]-4-(N,N-dimethylamino)-butan-2-ol] | 1.454 µg/mL (≈ 2.85 µM) |  |
| COc1cc2ccc(Br)cc2cc1C(c1ccc(Cl)cc1)C(O)(CCN(C)C)c1ccccc1Br (stereo not drawn) [Compound 22, 1-(4-chlorophenyl)-2-(2-bromophenyl)-1-[2-(7-bromo-3-methoxy)naphthyl]-4-(N,N-dimethylamino)-butan-2-ol] | 0.111 µg/mL (≈ 0.18 µM) |  |
| COc1cc2ccc(Br)cc2cc1C(c1ccc(C)cc1)C(O)(CCN(C)C)c1cccc2ccccc12 (stereo not drawn) [Compound 29, 1-(4-methylphenyl)-2-(1-naphthyl)-1-[2-(7-bromo-3-methoxy)naphthyl]-4-(N,N-dimethylamino)-butan-2-ol] | 0.222 µg/mL (≈ 0.39 µM) |  |
| COc1cc2ccc(Br)cc2cc1C(c1ccc(Cl)cc1)C(O)(CCN(C)C)c1ccccc1 (stereo not drawn) [Compound 17, 1-(4-chlorophenyl)-2-phenyl-1-[2-(7-bromo-3-methoxy)naphthyl]-4-(N,N-dimethylamino)-butan-2-ol] | 2.000 µg/mL (≈ 3.71 µM) |  |
| COc1cc2ccc(Br)cc2cc1C(c1ccc(Cl)cc1)C(O)(CCN(C)C)c1cccc(Br)c1 (stereo not drawn) [Compound 15, 1-(4-chlorophenyl)-2-(3-bromophenyl)-1-[2-(7-bromo-3-methoxy)naphthyl]-4-(N,N-dimethylamino)-butan-2-ol] | 2.166 µg/mL (≈ 3.51 µM) |  |
| COc1cc2ccccc2cc1C(c1ccc(Cl)cc1)C(O)(CCN(C)C)c1ccc(F)cc1F (stereo not drawn) [Compound 13, 1-(4-chlorophenyl)-2-(2,4-difluorophenyl)-1-[2-(3-methoxy)naphthyl]-4-(N,N-dimethylamino)-butan-2-ol] |  | MIC [1, 4]: 1 µg/mL (≈ 2.02 µM) |
| COc1cc2ccc(Br)cc2cc1C(c1ccccc1)C(O)(CCN(C)C)c1ccc(Br)cc1 (stereo not drawn) [Compound 10, 1-phenyl-2-(4-bromophenyl)-1-[2-(7-bromo-3-methoxy)naphthyl]-4-(N,N-dimethylamino)-butan-2-ol] | 2.000 µg/mL (≈ 3.43 µM) |  |

| SMILES | MIC [1] | further results |
| --- | --- | --- |
| COc1cc2ccc(Br)cc2cc1C(c1ccccc1)C(O)(CCN(C)C)c1ccc(Br)cc1 (stereo not drawn) [Compound 9, 1-phenyl-2-(4-bromophenyl)-1-[2-(7-bromo-3-methoxy)naphthyl]-4-(N,N-dimethylamino)-butan-2-ol] | 0.118 µg/mL (≈ 0.202 µM) |  |
| COc1cc2ccc(Br)cc2cc1C(c1ccc(Cl)cc1)C(O)(CCN(C)C)c1ccc(Br)cc1 (stereo not drawn) [Compound 8, 1-(4-chlorophenyl)-2-(4-bromophenyl)-1-[2-(7-bromo-3-methoxy)naphthyl]-4-(N,N-dimethylamino)-butan-2-ol] | 0.956 µg/mL (≈ 1.55 µM) |  |
| COc1cc2ccc(Br)cc2cc1C(c1ccc(Cl)cc1)C(O)(CCN(C)C)c1cccc2ccccc12 (single isomer, unassigned) [Compound 4, 1-(4-chlorophenyl)-2-(1-naphthyl)-1-[2-(7-bromo-3-methoxy)naphthyl]-4-(N,N-dimethylamino)-butan-2-ol] | 0.244 µg/mL (≈ 0.414 µM) | LD50 at 7 days [2]: ≥ 500 mg/kg; death or abnormality of the animals [3]: no death nor abnormality |
| COc1cc2ccc(Br)cc2cc1C(c1ccccc1)C(O)(CCN(C)C)c1cccc2ccccc12 (stereo not drawn) [Compound 26, 1-phenyl-2-(1-naphthyl)-1-[2-(7-bromo-3-methoxy)naphthyl]-4-(N,N-dimethylamino)-butan-2-ol] | 1.977 µg/mL (≈ 3.57 µM) |  |
| COc1cc2ccc(Br)cc2cc1C(c1cccc(Cl)c1)C(O)(CCN(C)C)c1cccc2ccccc12 (stereo not drawn) [Compound 35, 1-(3-chlorophenyl)-2-(1-naphthyl)-1-[2-(7-bromo-3-methoxy)naphthyl]-4-(N,N-dimethylamino)-butan-2-ol] | 0.114 µg/mL (≈ 0.194 µM) |  |
| COc1cc2ccc(Br)cc2cc1C(c1ccc(Cl)cc1)C(O)(CCN(C)C)c1ccccc1Br (stereo not drawn) [Compound 21, 1-(4-chlorophenyl)-2-(2-bromophenyl)-1-[2-(7-bromo-3-methoxy)naphthyl]-4-(N,N-dimethylamino)-butan-2-ol] | 2.000 µg/mL (≈ 3.24 µM) |  |
| COc1cc2ccc(Br)cc2cc1C(c1cccc(Cl)c1)C(O)(CCN(C)C)c1cccc2ccccc12 (stereo not drawn) [Compound 36, 1-(3-chlorophenyl)-2-(1-naphthyl)-1-[2-(7-bromo-3-methoxy)naphthyl]-4-(N,N-dimethylamino)-butan-2-ol] | 3.773 µg/mL (≈ 6.41 µM) |  |
| COc1cc2ccc(Br)cc2cc1C(c1ccc(Cl)cc1)C(O)(CCN(C)C)c1ccccc1 (stereo not drawn) [Compound 18, 1-(4-chlorophenyl)-2-phenyl-1-[2-(7-bromo-3-methoxy)naphthyl]-4-(N,N-dimethylamino)-butan-2-ol] | 0.109 µg/mL (≈ 0.202 µM) |  |
| COc1cc2ccc(Br)cc2cc1C(c1ccc(Cl)cc1)C(O)(CCN(C)C)c1ccc(Br)cc1 (stereo not drawn) [Compound 7, 1-(4-chlorophenyl)-2-(4-bromophenyl)-1-[2-(7-bromo-3-methoxy)naphthyl]-4-(N,N-dimethylamino)-butan-2-ol] |  | MIC [1, 4]: 1 µg/mL (≈ 1.62 µM) |
| COc1cc2ccc(Br)cc2cc1C(c1ccc(Cl)cc1)C(O)(CCN(C)C)c1cccc2ccccc12 (single isomer, unassigned) [Compound 3, 1-(4-chlorophenyl)-2-(1-naphthyl)-1-[2-(7-bromo-3-methoxy)naphthyl]-4-(N,N-dimethylamino)-butan-2-ol] | 2.883 µg/mL (≈ 4.89 µM) |  |
| COc1c(C(c2ccccc2)C(O)(CCN(C)C)c2cccc3ccccc23)cc2cc(Br)ccc2c1Br (stereo not drawn) [Compound 31, 1-phenyl-2-(1-naphthyl)-1-[2-(4,7-dibromo-3-methoxy)naphthyl]-4-(N,N-dimethylamino)-butan-2-ol] | 0.124 µg/mL (≈ 0.196 µM) |  |
| CN(C)CCC(O)(c1cccc2ccccc12)C(c1ccccc1)c1cc2cc(Br)ccc2c(Br)c1O (stereo not drawn) [Compound 33, 1,6-dibromo-3-[1-phenyl 2-(1-naphthyl)-2-hydroxy-4-(N,N-dimethylamino)]butyl-2-naphthol] | 1.000 µg/mL (≈ 1.61 µM) |  |
| COc1cc2ccccc2cc1C(c1ccccc1)C(O)(CCN(C)C)c1cccc2ccccc12 (stereo not drawn) [Compound 2, 1-phenyl-2-(1-naphthyl)-1-[2-(3-methoxy)-naphthyl]-4-(N,N-dimethylamino)-butan-2-ol] | 3.178 µg/mL (≈ 6.68 µM) |  |
| COc1cc2ccc(Br)cc2cc1C(c1ccccc1)C(O)(CCN(C)C)c1ccccc1 (stereo not drawn) [Compound 20, 1,2-diphenyl-1-[2-(7-bromo-3-methoxy)naphthyl]-4-(N,N-dimethylamino)-butan-2-ol] | 2.000 µg/mL (≈ 3.96 µM) |  |
| COc1cc2ccc(Br)cc2cc1C(c1ccccc1)C(O)(CCN(C)C)c1cccc(Br)c1 (stereo not drawn) [Compound 12, 1-phenyl-2-(3-bromophenyl)-1-[2-(7-bromo-3-methoxy)naphthyl]-4-(N,N-dimethylamino)-butan-2-ol] | 1.000 µg/mL (≈ 1.71 µM) |  |

From patent publication US8674136B2, “Aromatic butan-2-ol compounds and preparation and uses thereof” (Institute of Pharmacology and Toxicology Academy of …, priority 2010, dated 2014)
